From PubChem BioAssay AID1259407 (Chemical Carcinogenesis Research Information System (CCRIS), 2018)
The source made the active and inactive calls. The rule behind the calls is not given here.

System: CCRIS mutagenicity, Ames/micronucleus/aberration tests
Experiment: CCRIS mutagenicity studies
[1] = Test System: AMES SALMONELLA TYPHIMURIUM, Strain/Indicator: TA98, Metabolic Activation: NONE, Method: PREINCUBATION
[2] = Test System: AMES SALMONELLA TYPHIMURIUM, Strain/Indicator: TA100, Metabolic Activation: NONE, Method: PREINCUBATION
[3] = Test System: AMES SALMONELLA TYPHIMURIUM, Strain/Indicator: TA100, Metabolic Activation: NONE, Method: STANDARD PLATE
[4] = Test System: AMES SALMONELLA TYPHIMURIUM, Strain/Indicator: TA100, Metabolic Activation: RAT, LIVER, S-9, AROCLOR 1254, Method: STANDARD PLATE
[5] = Test System: AMES SALMONELLA TYPHIMURIUM, Strain/Indicator: TA1535, Metabolic Activation: NONE, Method: STANDARD PLATE
[6] = Test System: AMES SALMONELLA TYPHIMURIUM, Strain/Indicator: TA98, Metabolic Activation: NONE, Method: STANDARD PLATE

## CCCCCCCOc1ccccc1NC(=O)OCCN1CCCCC1
Test System: AMES SALMONELLA TYPHIMURIUM, Strain/Indicator: TA98, Metabolic Activation: MOUSE, LIVER, S-9, AROCLOR 1254, Method: PREINCUBATION
  mutagenic call: inactive; negative
[1]
  mutagenic call: inactive; negative
Test System: AMES SALMONELLA TYPHIMURIUM, Strain/Indicator: TA100, Metabolic Activation: MOUSE, LIVER, S-9, AROCLOR 1254, Method: PREINCUBATION
  mutagenic call: inactive; negative
[2]
  mutagenic call: inactive; negative
Test System: AMES SALMONELLA TYPHIMURIUM, Strain/Indicator: TA1535, Metabolic Activation: MOUSE, LIVER, S-9, AROCLOR 1254, Method: PREINCUBATION
  mutagenic call: inactive; negative
Test System: AMES SALMONELLA TYPHIMURIUM, Strain/Indicator: TA1535, Metabolic Activation: NONE, Method: PREINCUBATION
  mutagenic call: inactive; negative
Test System: AMES SALMONELLA TYPHIMURIUM, Strain/Indicator: TA1538, Metabolic Activation: MOUSE, LIVER, S-9, AROCLOR 1254, Method: PREINCUBATION
  mutagenic call: inactive; negative
Test System: AMES SALMONELLA TYPHIMURIUM, Strain/Indicator: TA1538, Metabolic Activation: NONE, Method: PREINCUBATION
  mutagenic call: inactive; negative
Test System: AMES SALMONELLA TYPHIMURIUM, Strain/Indicator: TA1978, Metabolic Activation: MOUSE, LIVER, S-9, AROCLOR 1254, Method: PREINCUBATION
  mutagenic call: inactive; negative
Test System: AMES SALMONELLA TYPHIMURIUM, Strain/Indicator: TA1978, Metabolic Activation: NONE, Method: PREINCUBATION
  mutagenic call: inactive; negative
Test System: E. COLI, Strain/Indicator: CM611 UVRA/LEXA, Metabolic Activation: MOUSE, LIVER, S-9, AROCLOR 1254, Method: PREINCUBATION
  mutagenic call: inactive; negative
Test System: E. COLI, Strain/Indicator: CM611 UVRA/LEXA, Metabolic Activation: NONE, Method: PREINCUBATION
  mutagenic call: inactive; negative
Test System: E. COLI, Strain/Indicator: WP2, Metabolic Activation: MOUSE, LIVER, S-9, AROCLOR 1254, Method: PREINCUBATION
  mutagenic call: inactive; negative
Test System: E. COLI, Strain/Indicator: WP2, Metabolic Activation: NONE, Method: PREINCUBATION
  mutagenic call: inactive; negative
Test System: E. COLI, Strain/Indicator: WP2 UVRA, Metabolic Activation: MOUSE, LIVER, S-9, AROCLOR 1254, Method: PREINCUBATION
  mutagenic call: inactive; negative
Test System: E. COLI, Strain/Indicator: WP2 UVRA, Metabolic Activation: NONE, Method: PREINCUBATION
  mutagenic call: inactive; negative
Test System: E. COLI, Strain/Indicator: WP67 UVRA/POLA, Metabolic Activation: MOUSE, LIVER, S-9, AROCLOR 1254, Method: PREINCUBATION
  mutagenic call: inactive; negative
Test System: E. COLI, Strain/Indicator: WP67 UVRA/POLA, Metabolic Activation: NONE, Method: PREINCUBATION
  mutagenic call: inactive; negative

## CCCCOc1ccc(N=O)cc1
[3]
  mutagenic call: active; positive

## OCC(O)C1CO1 (configuration not stated)
End Point: IN VIVO MICRONUCLEUS, Test System: SPERMATID, Species: RAT, Strain/Sex: SPRAGUE-DAWLEY/MALE, Route: IP INJECTION
  mutagenic call: active; positive
[3]
  mutagenic call: active; positive
[4]
  mutagenic call: active; positive

## [N-]=[N+]=NC[C@@H](O)[C@H](O)[C@H](O)[C@@H](O)CO
[5]
  mutagenic call: active; positive

## c1ccc2c(c1)ccc1cc3ccc4ccncc4c3cc12
[6]
  mutagenic call: inactive; negative
Test System: AMES SALMONELLA TYPHIMURIUM, Strain/Indicator: TA98, Metabolic Activation: RAT, LIVER, S-9, AROCLOR 1254 (10%), Method: STANDARD PLATE
  mutagenic call: active; positive
Test System: AMES SALMONELLA TYPHIMURIUM, Strain/Indicator: TA98, Metabolic Activation: RAT, LIVER, S-9, AROCLOR 1254, Method: STANDARD PLATE
  mutagenic call: active; positive
[3]
  mutagenic call: inactive; negative
Test System: AMES SALMONELLA TYPHIMURIUM, Strain/Indicator: TA100, Metabolic Activation: RAT, LIVER, S-9, AROCLOR 1254 (10%), Method: STANDARD PLATE
  mutagenic call: active; positive
[4]
  mutagenic call: active; positive

## Oc1ccc2ccc3[nH]c4ccc5ccccc5c4c3c2c1
[6]
  mutagenic call: active; positive
Test System: AMES SALMONELLA TYPHIMURIUM, Strain/Indicator: TA98, Metabolic Activation: RAT, LIVER, S-9, 3-METHYLCHOLANTHRENE, Method: STANDARD PLATE
  mutagenic call: active; positive
[3]
  mutagenic call: active; positive
Test System: AMES SALMONELLA TYPHIMURIUM, Strain/Indicator: TA100, Metabolic Activation: RAT, LIVER, S-9, 3-METHYLCHOLANTHRENE, Method: STANDARD PLATE
  mutagenic call: active; positive
Test System: AMES SALMONELLA TYPHIMURIUM, Strain/Indicator: TM677, Metabolic Activation: NONE, Method: PREINCUBATION
  mutagenic call: inactive; negative
Test System: AMES SALMONELLA TYPHIMURIUM, Strain/Indicator: TM677, Metabolic Activation: RAT, LIVER, S-9, 3-METHYLCHOLANTHRENE (1%), Method: PREINCUBATION
  mutagenic call: active; positive
Test System: AMES SALMONELLA TYPHIMURIUM, Strain/Indicator: TM677, Metabolic Activation: RAT, LIVER, S-9, 3-METHYLCHOLANTHRENE (10%), Method: PREINCUBATION
  mutagenic call: active; positive
Test System: AMES SALMONELLA TYPHIMURIUM, Strain/Indicator: TM677, Metabolic Activation: RAT, LIVER, S-9, AROCLOR 1254 (10%), Method: PREINCUBATION
  mutagenic call: active; positive

## CC(CO)[N+](=O)[O-] (configuration not stated)
[1]
  mutagenic call: inactive; negative
Test System: AMES SALMONELLA TYPHIMURIUM, Strain/Indicator: TA98, Metabolic Activation: RAT, LIVER, S-9, AROCLOR, Method: PREINCUBATION
  mutagenic call: inactive; negative
[2]
  mutagenic call: inactive; negative
Test System: AMES SALMONELLA TYPHIMURIUM, Strain/Indicator: TA100, Metabolic Activation: RAT, LIVER, S-9, AROCLOR, Method: PREINCUBATION
  mutagenic call: inactive; negative
Test System: AMES SALMONELLA TYPHIMURIUM, Strain/Indicator: TA102, Metabolic Activation: NONE, Method: PREINCUBATION
  mutagenic call: inactive; negative
Test System: AMES SALMONELLA TYPHIMURIUM, Strain/Indicator: TA102, Metabolic Activation: RAT, LIVER, S-9, AROCLOR, Method: PREINCUBATION
  mutagenic call: inactive; negative

## O=c1c2c(O)cc(O)cc2oc2c(O)ccc(O[C@@H]3O[C@H](CO)[C@@H](O)[C@H](O)[C@H]3O)c12
Test System: AMES SALMONELLA TYPHIMURIUM, Strain/Indicator: TA97, Metabolic Activation: RAT, LIVER, S-9, PHENOBARBITAL AND 5,6-BENZOFLAVONE, BETA-GLUCOSIDASE, Method: PREINCUBATION
  mutagenic call: active; positive
Test System: AMES SALMONELLA TYPHIMURIUM, Strain/Indicator: TA98, Metabolic Activation: RAT, LIVER, S-9, PHENOBARBITAL AND 5,6-BENZOFLAVONE, BETA-GLUCOSIDASE, Method: PREINCUBATION
  mutagenic call: inactive; negative
Test System: AMES SALMONELLA TYPHIMURIUM, Strain/Indicator: TA100, Metabolic Activation: RAT, LIVER, S-9, PHENOBARBITAL AND 5,6-BENZOFLAVONE, BETA-GLUCOSIDASE, Method: PREINCUBATION
  mutagenic call: active; positive
Test System: AMES SALMONELLA TYPHIMURIUM, Strain/Indicator: TA2637, Metabolic Activation: RAT, LIVER, S-9, PHENOBARBITAL AND 5,6-BENZOFLAVONE, BETA-GLUCOSIDASE, Method: PREINCUBATION
  mutagenic call: active; positive

## Cl/C=C(\Cl)C(Cl)Cl
[6]
  mutagenic call: active; positive
[3]
  mutagenic call: active; positive
[4]
  mutagenic call: active; positive
[5]
  mutagenic call: active; positive

## O=[N+]([O-])c1ccc(-c2cscn2)o1
Test System: AMES SALMONELLA TYPHIMURIUM, Strain/Indicator: TA100, Metabolic Activation: RAT, LIVER, S-9, KC500 OR PHENOBARBITAL, Method: LIQUID SUSPENSION
  mutagenic call: active; positive
